# Assay results reported in patent US20090093460A1, “Compositions” (AstraZeneca AB, priority 2003, published 2009).
# Where two headings read alike, the source gives them in different places.
# What was measured:
# [1] = biological target: T1, Adrenergic α2C (Homo sapiens, UniProt P18825); assay: Radioligand binding Adrenergic α2C
# T1 sequence (P18825 1-462): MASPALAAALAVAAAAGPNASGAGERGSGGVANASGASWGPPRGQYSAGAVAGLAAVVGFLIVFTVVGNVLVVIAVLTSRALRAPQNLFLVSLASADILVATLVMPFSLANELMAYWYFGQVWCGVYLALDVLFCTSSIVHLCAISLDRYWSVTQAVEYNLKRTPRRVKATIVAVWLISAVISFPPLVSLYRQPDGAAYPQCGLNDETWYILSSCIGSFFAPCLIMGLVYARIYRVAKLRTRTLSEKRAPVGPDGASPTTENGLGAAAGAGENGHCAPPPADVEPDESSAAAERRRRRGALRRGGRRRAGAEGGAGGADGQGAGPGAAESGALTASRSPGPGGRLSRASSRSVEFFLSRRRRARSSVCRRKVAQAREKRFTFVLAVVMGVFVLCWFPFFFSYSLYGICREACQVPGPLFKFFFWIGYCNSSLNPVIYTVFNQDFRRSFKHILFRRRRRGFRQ
# [2] = biological target: T2, 5-HT1A receptors (Homo sapiens, UniProt P08908); assay: In vitro assay of 5HT1A agonism (GTPγ35S, CHO membranes); format: biochemical; design: expressed in transfected cells; host or cells: CHO
# T2 sequence (P08908 1-422): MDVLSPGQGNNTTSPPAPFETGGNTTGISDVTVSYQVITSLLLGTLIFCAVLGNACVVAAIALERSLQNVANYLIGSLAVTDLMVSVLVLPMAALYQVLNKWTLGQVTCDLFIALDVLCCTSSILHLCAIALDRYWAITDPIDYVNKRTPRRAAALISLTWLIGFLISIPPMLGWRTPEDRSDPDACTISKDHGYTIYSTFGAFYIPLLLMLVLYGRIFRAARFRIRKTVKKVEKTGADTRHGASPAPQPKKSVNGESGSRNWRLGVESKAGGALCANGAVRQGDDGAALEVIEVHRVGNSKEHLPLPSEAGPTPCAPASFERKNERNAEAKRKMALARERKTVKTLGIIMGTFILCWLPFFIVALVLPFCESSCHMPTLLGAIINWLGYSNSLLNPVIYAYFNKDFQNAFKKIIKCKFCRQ
# Description: CHO membranes (10 μg protein) expressing human 5-HT1A receptors were incubated in 100 μl of 20 mM HEPES, pH 7.4 assay buffer containing 10 mM MgCl2, 100 mM NaCl, 0.1% BSA, 20 μM GDP, 200 μg WGA-PVT beads (Amersham RPNQ0001), 200 pM GTPγ^35S (Perkin Elmer NEG-030H). 11-piperazin-1-yldibenzo[b,f][1,4]thiazepine was incubated with the above at 11 different concentrations varying from 10 μM to 170 pM in Packard OptiPlates with shaking for 1.5 hours at room temperature. […] The plates were centrifuged to settle the beads and measured in a Parkard TopCount.
# [3] = test system: mice; assay: Mouse forced swim test; format: in vivo; conditions: 10.0 mg/kg sc, 15 minutes prior
# Description: Methods: Mice were placed in cylinders of water (25.0° C.±1.5° C.) for 6 minutes. The amount of immobility was quantified during the last 4 minutes of each session. The experimental observer was blind to the treatment conditions. […] Imipramine 45.0 mg/kg and citalopram 15.0 mg/kg were measured as the salt and administered ip 60 minutes prior to the behavioural session.
# [4] = biological target: T3, Adrenergic α1D (Homo sapiens, UniProt P25100); assay: Radioligand binding 203400 Adrenergic α1D
# T3 construct: host or cells: HEK-293 cells
# T3 sequence (P25100 1-572): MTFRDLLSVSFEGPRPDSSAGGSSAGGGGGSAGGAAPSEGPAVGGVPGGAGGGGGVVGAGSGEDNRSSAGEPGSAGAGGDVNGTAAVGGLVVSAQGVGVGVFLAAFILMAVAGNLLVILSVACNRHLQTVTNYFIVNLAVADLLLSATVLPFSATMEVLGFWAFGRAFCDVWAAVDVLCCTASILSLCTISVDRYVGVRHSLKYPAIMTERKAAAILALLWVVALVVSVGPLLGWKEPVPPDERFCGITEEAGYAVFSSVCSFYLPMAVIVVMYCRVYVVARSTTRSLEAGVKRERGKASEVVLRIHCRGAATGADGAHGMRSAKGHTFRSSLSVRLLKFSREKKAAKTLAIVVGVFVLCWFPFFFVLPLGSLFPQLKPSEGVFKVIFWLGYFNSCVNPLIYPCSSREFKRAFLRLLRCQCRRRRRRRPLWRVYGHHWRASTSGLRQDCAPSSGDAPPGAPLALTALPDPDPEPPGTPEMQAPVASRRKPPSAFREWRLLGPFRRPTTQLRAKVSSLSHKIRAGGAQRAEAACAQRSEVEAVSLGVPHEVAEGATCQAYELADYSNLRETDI
# From the text: Receptor binding methods, (α-adrenergic subtype specific, are provided below.
# [5] = biological target: T4, D2 receptors (Homo sapiens, UniProt P14416); design: species or system primate; conditions: in vivo
# T4 construct: from tissue; host or cells: brain of living primate subjects (PET)
# [6] = Plasma levels in satellite exposure animals (Geller-Seifter); format: in vivo; conditions: Long Evans, rat, subcutaneous, 0.25 hours after administration
# Description: Anxiolytic activity of 11-piperazin-1-yldibenzo[b,f][1,4]thiazepine was tested in rats according to the Geller-Seifter conflict test. Efficacy results are presented in Table 1 and plasma levels in satellite exposure animals at 0.25 hours after administration are provided in Table 2.
# Several doses were tested on a given day in different subjects. Each dose, then, was tested in a different sub-set of rats. The dependent variables recorded were the rate of responding in unpunished and punished components (total responses/total time under the component), the number of shocks delivered. A selective anxiolytic effect is defined as an increase in responding in the […] components with relatively less or no effect on responding in […] components. t-Tests were used to compare mean of the control's rate of responding on vehicle day of the rats used for a specific dose to the same rats means following delivery of each dose of compound (for only the rats used within each dose). Brains, CSF and plasma were collected in a satellite group of rats that match the Geller-Seifter rats to evaluate exposure levels.
# Exposure sampling: In weight and feeding status-matched subjects, terminal plasma, whole brain and CSF samples were collected. Four rats were used for each of the 4 doses of drug, with samples obtained 15 minutes after dosing.
# T4 sequence (P14416 whole entry): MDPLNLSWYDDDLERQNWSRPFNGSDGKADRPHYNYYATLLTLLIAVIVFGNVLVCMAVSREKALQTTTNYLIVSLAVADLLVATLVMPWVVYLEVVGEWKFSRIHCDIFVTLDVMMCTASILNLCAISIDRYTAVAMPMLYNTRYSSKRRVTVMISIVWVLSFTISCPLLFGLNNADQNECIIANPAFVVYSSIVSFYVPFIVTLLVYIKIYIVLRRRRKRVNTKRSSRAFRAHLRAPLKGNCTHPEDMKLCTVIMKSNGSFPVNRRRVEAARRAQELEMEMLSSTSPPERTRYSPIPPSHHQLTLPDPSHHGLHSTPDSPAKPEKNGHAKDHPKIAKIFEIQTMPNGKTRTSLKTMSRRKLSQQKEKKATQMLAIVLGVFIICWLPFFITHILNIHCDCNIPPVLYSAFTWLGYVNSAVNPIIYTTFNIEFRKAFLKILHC
compound,measurement,setting,value
"c1ccc2c(c1)N=C(N1CCNCC1)c1ccccc1S2 [11-piperazin-1-yldibenzo[b,f][1,4]thiazepine]",IC50,[1],5640 ± 1010 nM
same,n,[1],1.1 ± 0.079
same,inhibition at 10 µM,[1]; 10 μM,58%
same,Ki,[1]; read-out: ki,820 ± 146 nM
same,Ki,"[1]; α2C, read-out: Affinity",820 nM
same,EC50,"[2]; GTPγ35S, CHO membranes",310 nM
same,Emax,[2]; read-out: maximum efficacy,66%
same,antidepressant effect (immobility),[3],antidepressant effects in this assay comparable to imipramine
same,IC50,[4],377 ± 49 nM
same,n,[4],0.984 ± 0.111
same,inhibition at 0.3 µM,[4]; 0.3 μM,53%
same,Ki,[4]; read-out: ki,185 ± 24 nM
same,Ki,"[4]; α1D, read-out: Affinity",185 nM
same,receptor occupancy by PET,[5],occupies
same,concentration at 0.25 h,[6]; 2 mg/kg s.c.,4.8 µM
same,concentration at 0.25 h,[6]; 5 mg/kg s.c.,12.1 µM
same,concentration at 0.25 h,[6]; 10 mg/kg s.c.,19.4 µM
